# Measurements from patent US9636417B2, “Mucosal membrane receptor and uses thereof” (Universiteit Gent, priority 2008, dated 2017).
# Entries after “also recorded” stand apart in the source; their conditions may differ.
# Tests used:
# [1] = tested on: BBMV of F4R+ pigs; assay: F4 binding to BBMV after glycosidase or periodate treatment; design: species or system pig
# Procedure: To remove sialic acid from the pAPN, 2 mg/ml BBMV from F4R+ pigs were incubated with soluble neuraminidase from Arthrobacter urefaciens (Calbiochem, specific for α2-3,6,8,9 linked sialic acid) for 3 hours at 37° C. according to the manufacturer's instructions. Fetuin, a sialic acid containing protein was used as a positive control and the buffer in which the neuraminidase was provided, was used as a negative control. Brush border membrane vesicles from F4R+ pigs were treated with N-glycosidase F (NEB, Beverly, Mass.) or with endoglycosidase H (NEB Beverly, Mass.) according to the manufacturer's instructions to remove all N-glycans (high mannose and complex, sialic acid containing glycans) or N-glycans of the high mannose type, respectively. RNAse B was used as a positive control and the buffer in which the enzyme was provided, was used as a negative control.
# Brush border membrane vesicles from F4R+ pigs were treated with variable concentrations of NaIO4 (Sigma-Aldrich Chemie GmbH, Steinheim, Germany) in 50 mM sodiumacetate, pH 4.5, at 37° C. in the dark. Reactions were stopped by the addition of ethylene glycol to a final concentration of 20 mM. Brush border membrane vesicles from F4R− pigs were treated with the same […] and were used as a negative control.
# [2] = tested on: pAPN-BHK-21 cells; assay: Endocytosis assay (confocal microscopy) of FLUOS-labeled-F4 with chemical inhibitors; assay type: cell-based, porcine; conditions: for effect on F4 internalization in pAPN-BHK cells: different concentrations, inhibitor added 30 min before FLUOS-labeled-F4
# Procedure: Cells were then washed with PBS supplemented with 0.1 mM CaCl2 and 1 mM MgCl2 (PBS+) to remove unbound FLUOS-labeled-F4 and shifted to 37° C. to start endocytosis. After different time intervals, cells were fixed with 3% paraformaldehyde (PF), permeabilized with 0.1% Triton X-100 and stained with 200 nM phalloidin-Texas Red (Molecular Probes, Eugene, Oreg., USA) in PBS+ for 1 h at 37° C. To analyze the effect of different inhibitors on endocytosis, cells were incubated with different concentrations of each inhibitor (Table 1). Inhibitors were added 30 min before incubation with FLUOS-labeled-F4 (25 μg). Cells were fixed with 3% PF at the indicated times. For each concentration of the chemical inhibitors, the viability of the cells was analyzed by flow cytometry after the addition of 10 μg propidium iodide (Molecular Probes, Eugene, Oreg., USA). The number of vesicles internalized in the cells was counted using confocal microscopy. Confocal images were acquired using a Leica TCS SP2 laser scanning spectrum confocal system (Leica Microsystems), using an argon 488-nm laser line and a […] 543-nm laser line to excite FITC and Texas Red respectively. Images were merged using Leica confocal software.
# [3] = molecular target: T1, F4R on brush border membrane vesicles (BBMV) (Sus scrofa, UniProt P15145); assay: biochemical; assay type: binding, pig; conditions: read-out: inhibition of adhesion of F4R+ BBMV to F4ac
# T1 construct: Brush border membrane vesicles (BBMV) of the small intestine were prepared from the F4R+ and F4R− pigs; from tissue; host or cells: pig jejunum: enterocyte preparations, BBMV, ligated jejunal loops
# T1 sequence (P15145 2-963): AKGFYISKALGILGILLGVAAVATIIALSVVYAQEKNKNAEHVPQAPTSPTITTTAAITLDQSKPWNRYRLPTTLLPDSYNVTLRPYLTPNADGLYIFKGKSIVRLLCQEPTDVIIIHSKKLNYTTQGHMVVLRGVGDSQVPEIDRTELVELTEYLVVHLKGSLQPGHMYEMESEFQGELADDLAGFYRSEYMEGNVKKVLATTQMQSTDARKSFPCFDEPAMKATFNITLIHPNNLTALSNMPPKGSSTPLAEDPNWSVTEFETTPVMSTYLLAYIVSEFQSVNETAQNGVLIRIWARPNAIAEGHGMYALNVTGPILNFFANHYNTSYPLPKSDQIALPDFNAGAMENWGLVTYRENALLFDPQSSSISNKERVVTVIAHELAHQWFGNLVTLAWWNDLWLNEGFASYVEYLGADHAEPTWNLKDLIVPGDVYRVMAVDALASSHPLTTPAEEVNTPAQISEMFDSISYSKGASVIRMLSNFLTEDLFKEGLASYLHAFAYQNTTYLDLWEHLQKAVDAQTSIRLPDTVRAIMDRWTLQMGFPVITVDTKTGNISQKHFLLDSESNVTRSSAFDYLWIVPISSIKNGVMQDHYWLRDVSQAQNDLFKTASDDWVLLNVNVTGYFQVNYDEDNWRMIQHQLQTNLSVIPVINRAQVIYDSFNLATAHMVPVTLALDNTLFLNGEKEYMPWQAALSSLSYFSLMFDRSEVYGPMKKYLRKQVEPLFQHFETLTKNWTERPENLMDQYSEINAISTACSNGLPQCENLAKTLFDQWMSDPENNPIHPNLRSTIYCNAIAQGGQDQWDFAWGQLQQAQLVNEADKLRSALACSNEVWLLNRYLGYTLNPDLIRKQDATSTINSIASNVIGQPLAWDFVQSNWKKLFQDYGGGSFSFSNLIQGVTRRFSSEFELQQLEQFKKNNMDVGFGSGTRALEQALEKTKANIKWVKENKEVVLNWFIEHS
# Procedure: Brush border membrane vesicles (BBMV) of the small intestine were prepared from the F4R+ and F4R− pigs by the method of Kessler (1978) with a slight modification. Enterocytes were washed twice in PBS with 0.1 mM PMSF and were resuspended in Tris-HCl buffer (2 mM, pH 7.2) containing 50 mM mannitol in ratio 3:1 (vol/vol) whereafter cells were homogenized for 2 min with an Ultra Turrax (Janke & Kunkel, I K A Labortechnik, Staufen, Germany). Subsequently, CaCl2 was added to the homogenate to a final concentration of 10 mM and placed on ice for 15 min. Then the homogenate was centrifugated at 27,000×g for 30 min and washed with Tris buffer (pH 7.5) containing 50 mM mannitol and 10 mM HEPES and centrifuged again. The pellet was resuspended in the same buffer and used for the study. The protein concentration of the obtained BBMV was determined using the bicinchoninic acid (BCA) reaction with bovine serum albumin (BSA) as standard (ICN Biomedicals, Belgium).
# The interaction between the F4ac fimbriae and BBMV or enterocytes of F4R+ and F4R− pigs was analyzed with the BIAcore®2000 biosensor (Uppsala, Sweden) using the CM3 chip. […]
# [4] = molecular target: T2, F4R on enterocytes (Sus scrofa, UniProt P15145); assay: biochemical; assay type: binding, pig; conditions: read-out: inhibition of adhesion of F4R+ enterocytes to F4ac
# T2 construct: Brush border membrane vesicles (BBMV) of the small intestine were prepared from the F4R+ and F4R− pigs; from tissue; host or cells: pig jejunum: enterocyte preparations, BBMV, ligated jejunal loops
# T2 sequence (P15145 2-963): T1 sequence (P15145 2-963)
# Procedure: The interaction between the F4ac fimbriae and BBMV or enterocytes of F4R+ and F4R− pigs was analyzed with the BIAcore®2000 biosensor (Uppsala, Sweden) using the CM3 chip. This has a short carboxymethyldextran surface to allow immobilization of F4 fimbriae via free NH2-groups using an amine-coupling kit (Biacore, Uppsala, Sweden) containing N-hydroxysuccinimide (NHS), N-ethyl-N′-[(3-dimethylamino)-propyl]-carbodiimide hydrochloride (EDC) and ethanolamine-HCl. Hereto, 100 μl of a mixture of NHS:EDC (1:1) was injected at a flow rate of 10 μl/min at 25° to activate the dextran matrix on the sensor chip, followed by F4ac at a concentration of 100 μg/ml in 0.1 M glycine buffer pH 2.3 until the amount (mol) of immobilized F4 equilized more than 500 resonance units (RU). […] Subsequently, the remaining active sites of the matrix were blocked with 1 M ethanolamine-HCl and washed with HBS-N (0.01 M HEPES, 0.15 M NaCl). […] All samples used in further experiments were diluted in HBS-N buffer, which also served as running buffer during the experiments.
# The first approach was to pre-incubate the F4R+ and F4R− enterocytes or BBMV with 0, 50 and 100 μg/ml F4ac fimbriae, while gently shaking. After 1 h pre-incubation at room temperature, a gentle short spin centrifugation was performed. […]
# [5] = tested on: wheat germ agglutinin (WGA); assay: SPR specificity control: bestatin pre-incubated BBMV and enterocytes on immobilized WGA; assay type: binding; conditions: bestatin 0 mM, 1 mM and 10 mM; F4R+ pigs
# Procedure: The interaction between the F4ac fimbriae and BBMV or enterocytes of F4R+ and F4R− pigs was analyzed with the BIAcore®2000 biosensor (Uppsala, Sweden) using the CM3 chip. This has a short carboxymethyldextran surface to allow immobilization of F4 fimbriae via free NH2-groups using an amine-coupling kit (Biacore, Uppsala, Sweden) containing N-hydroxysuccinimide (NHS), N-ethyl-N′-[(3-dimethylamino)-propyl]-carbodiimide hydrochloride (EDC) and ethanolamine-HCl. Hereto, 100 μl of a mixture of NHS:EDC (1:1) was injected at a flow rate of 10 μl/min at 25° to activate the dextran matrix on the sensor chip, followed by F4ac at a concentration of 100 μg/ml in 0.1 M glycine buffer pH 2.3 until the amount (mol) of immobilized F4 equilized more than 500 resonance units (RU). Thousand RU corresponds to a change in the surface concentration of 1 ng/mm2 (Stenberg 1991). Subsequently, the remaining active sites of the matrix were blocked with 1 M ethanolamine-HCl and washed with HBS-N (0.01 M HEPES, 0.15 M NaCl). […] All samples used in further experiments were diluted in HBS-N buffer, which also served as running buffer during the experiments.
# To check the specificity of blocking of bestatin, F4R+ and F4R− enterocytes or BBMV were pre-incubated with 0, 1 mM and 10 mM bestatin, while gently shaking for 1 hour at room temperature and injected in the WGA coated flow cell. […]
# [6] = molecular target: T3, pAPN transfected BHK-21 cells (Sus scrofa, UniProt P15145); assay: Flow cytometry of FLUOS-labeled-F4 binding to pAPN transfected BHK-21 cells; assay type: cell-based, porcine
# T3 construct: expressed in transfected cells; host or cells: BHK-21 (baby hamster kidney), G418-selected; gift
# T3 sequence (P15145 1-963): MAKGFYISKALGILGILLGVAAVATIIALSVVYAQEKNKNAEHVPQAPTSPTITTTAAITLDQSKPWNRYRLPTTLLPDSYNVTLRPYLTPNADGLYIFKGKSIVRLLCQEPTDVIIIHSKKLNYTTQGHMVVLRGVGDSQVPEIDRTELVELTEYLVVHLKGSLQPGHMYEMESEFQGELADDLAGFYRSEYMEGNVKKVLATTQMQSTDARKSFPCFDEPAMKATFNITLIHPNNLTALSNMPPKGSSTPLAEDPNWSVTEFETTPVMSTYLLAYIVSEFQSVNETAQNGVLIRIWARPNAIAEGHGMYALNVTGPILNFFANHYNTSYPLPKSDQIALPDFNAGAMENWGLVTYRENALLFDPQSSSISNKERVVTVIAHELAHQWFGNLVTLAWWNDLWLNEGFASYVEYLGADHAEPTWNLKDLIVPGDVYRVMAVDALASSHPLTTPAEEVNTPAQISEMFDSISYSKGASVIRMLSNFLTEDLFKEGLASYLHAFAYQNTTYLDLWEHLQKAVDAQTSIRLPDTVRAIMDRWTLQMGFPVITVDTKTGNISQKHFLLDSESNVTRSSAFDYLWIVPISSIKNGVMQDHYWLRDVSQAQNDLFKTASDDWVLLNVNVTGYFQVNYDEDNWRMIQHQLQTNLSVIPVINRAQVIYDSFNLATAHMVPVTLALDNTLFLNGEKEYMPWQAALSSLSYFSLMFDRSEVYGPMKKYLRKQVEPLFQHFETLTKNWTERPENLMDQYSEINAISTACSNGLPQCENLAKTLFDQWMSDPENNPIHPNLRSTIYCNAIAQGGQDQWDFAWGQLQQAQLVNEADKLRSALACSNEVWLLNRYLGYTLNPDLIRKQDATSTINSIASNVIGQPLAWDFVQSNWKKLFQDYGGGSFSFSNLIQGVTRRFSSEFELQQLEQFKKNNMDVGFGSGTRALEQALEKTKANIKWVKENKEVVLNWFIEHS
# Procedure: The BHK-21 and pAPN transfected BHK-21 cells were kindly gifted from Dr. Enjuanes and Dr. Delmas. The BHK-21 cells were cultured in DMEM with 5% FCS, 1% L-Glu, 1% P/S, 1% sodiumpyruvate (Gibco BRL, Life Technologies Inc., Paisley, Scotland), 1% non-essential amino acids (Gibco BRL, Life Technologies Inc., Paisley, Scotland). The pAPN transfected BHK-21 cells were grown in the same medium supplemented with 1.5 mg/ml geneticin G418 (Sigma-Aldrich Chemie GmbH, Steinheim, Germany).
# To block the internalization of FLUOS-labeled-F4, 50 μM bestatin, an inhibitor of aminopeptidase N (Sigma-Aldrich Chemie GmbH, Steinheim, Germany) was incubated with BHK-21 or pAPN transfected BHK-21 cells 3 hours before addition of 25 μg FLUOS-labeled-F4. Afterwards, cells were washed 3 times with PBS. The BHK-21 or pAPN transfected BHK-21 cells were analyzed by flow cytometry with a FACScanto using CellDiva software (BD Biosciences). Ten thousand cells were analysed for each sample, and three parameters were used for further analysis: forward light scattering, sideward light scattering and green fluorescence. The median fluorescence intensity was used to measure the amount of FLUOS-labeled-F4 to the cells.
molecule,measurement,setting,value
[O-][I+3]([O-])([O-])O [NaIO4],binding of F4 to the receptor in BBMV of F4R+ pig,"[1]; 25 mM NaIO4, 30 min",greatly reduced
same,F4ac binding to the BBMV of F4R+ pigs,"[1]; periodate, two hours treatment",abolishing; also recorded: abolished
NC12CC3CC(CC(C3)C1)C2 [amantadine],effect on F4 internalization in pAPN-BHK cells,[2],reduced the F4 internalization
CC(C)C[C@H](NC(=O)[C@@H](O)[C@H](N)Cc1ccccc1)C(=O)O [bestatin],inhibition at 1000 µM,[3],4 ± 1.2%
same,inhibition at 10000 µM,[3],10 ± 2%
same,inhibition at 1000 µM,[4],22 ± 3.3%
same,inhibition at 10000 µM,[4],72 ± 1%
same,interaction of pre-incubated BBMV or enterocytes with WGA,[5],No difference in interaction
same,mean fluorescence intensity after treatment of bestatin,[6],1001±15
same,FLUOS-labeled F4 internalization,"[2]; bestatin 50 μM, added 30 minutes before FLUOS-labeled F4, pAPN-BHK cells",18±5.3%
C=C1[C@@H](C)[C@H]2[C@H](Cc3ccccc3)NC(=O)[C@]23[C@H](OC(C)=O)/C=C/[C@@](C)(O)C(=O)[C@@H](C)C/C=C/[C@H]3[C@@H]1O [cytochalasin D],effect on F4 internalization in pAPN-BHK cells,[2],reduced the F4 internalization
"OC[C@H]1O[C@@](CO)(O[C@H]2O[C@H](CO)[C@@H](O)[C@H](O)[C@H]2O)[C@@H](O)[C@@H]1O [hypertonic sucrose, sucrose]",effect on F4 internalization in pAPN-BHK cells,[2],reduced the F4 internalization
C/C1=C/C(=O)O[C@@H]2C[C@@H](CC[C@H](C)/C=C\CC1)O[C@@](O)([C@@H]1CSC(=O)N1)C2 [latrunculin B],effect on F4 internalization in pAPN-BHK cells,[2],no effect
dynamin inhibitory peptide,effect on F4 internalization in pAPN-BHK cells,[2],reduced the F4 internalization
